Assay results published in ChEMBL document CHEMBL2163212, “Antivirals targeting influenza A virus” (J Med Chem, 2012).

Test system: Influenza A virus
Assay: Antiviral activity against Influenza A virus assessed as inhibition of cap dependent viral transcription
Type: functional, organism-based

SMILES	IC50
O=C(O)/C(O)=C/C(=O)C1(Cc2ccc(Cl)cc2)CCCN(Cc2ccccc2)C1 (configuration not stated)	1000 nM
O=C(O)/C(O)=C/C(=O)C1(Cc2ccc(Cl)cc2)CCN(Cc2ccccc2)CC1	1000 nM
